Measured values as given in patent US20210138025A1, “CATIONIC PEPTIDES WITH IMMUNOMODULATORY AND/OR ANTI-BIOFILM ACTIVITIES” (priority 2018, published 2021).
Non-standard residues stand in square brackets, D forms with d. No end group written: not given here. hArg = N=C(N)NCCCC[C@H](N)C(=O)O; Orn = NCCC[C@H](N)C(=O)O

Tests used:
PBMCs = assay: Cytotoxicity towards PBMCs, lactate dehydrogenase (LDH) release assay (Tables 6, 7); conditions: SPOT synthesized peptide ~25 μM, PBMCs from 3 human donors; Table 6
S. aureus (MRSA SAP0017) = assay type: cell-based, Staphylococcus aureus; conditions: for % Residual MRSA biofilm growth compared to untreated control: SPOT synthesized peptide, ~12.5 μM, clinical MRSA strain, crystal violet assay
Method: Methods of assessment of anti-biofilm activity: MRSA S. aureus strain SAP0017 biofilm formation was initially analyzed using a static abiotic solid surface assay as described elsewhere (de la Fuente-Nunez et al., 2012) and shown graphically in FIG. 2. Dilutions (1/100) of overnight cultures were incubated in BM2 biofilm-adjusted medium [62 mM potassium phosphate buffer (pH 7), 7 mM (NH4)2SO4, 2 mM MgSO4, 10 μM FeSO4, 0.4% (wt/vol) glucose, 0.5% (wt/vol) Casamino Acids], or a nutrient rich medium such as Tryptic soy broth supplemented with 1% glucose, in polypropylene microtiter plates (Falcon, United States) in the absence (control) or presence of peptide. Peptide was added at time zero (prior to adding the diluted, overnight cultures) in varying concentrations, and the amount biofilm formation was recorded after 22-46 h incubation for most bacteria. To quantify biofilm growth, planktonic cells were removed and biofilm cells adhering to the side of the wells were stained with crystal violet, and absorbance at 595 nm was measured using a microtiter plate reader (Bio-Tek Instruments Inc., United States).

[1] = tested on: planktonic methicillin resistant S. aureus; assay: microbe, parasite or virus in culture; assay type: cell-based, Staphylococcus aureus; conditions: planktonic methicillin resistant S. aureus, mean of three biological replicates

Substance	% Toxicity (LDH Release) (PBMCs) [%]	also measured
KIWGLLKLGIAL-NH2 [Imax-6, KIWGLLKLGIAL]	1.1	–
KKQKKIWRRILV-NH2 [Mmax- 16]	1.8	–
KRLQWVKVKKIR-NH2 [BFmax-16, KRLQWVKVKKIR]	0.6	–
KVQIIKQLIAKK-NH2 [BFmax-7, KVQIIKQLIAKK]	−3.9	–
KVVWWKVIIKVL-NH2 [BFmax-2, KVVWWKVIIKVL]	−3.5	–
LKLKAILKIIRV-NH2 [MILBFmax-1, LKLKAILKIIRV]	1.5	–
QIIKVVWRAVII-NH2 [MILBFmax-8, QIIKVVWRAVII]	−2.3	–
QQVKWWLIRWLA-NH2 [IBFmax-11, QQVKWWLIRWLA]	−0.1	–
RARQIRWLRKRV-NH2 [Imin-4, RARQIRWLRKRV]	−4.9	–
RQVRVKRWRARW-NH2 [Mmax- 18]	−4.9	–
RVLIKWKKVIVV-NH2 [IBFmax-8, RVLIKWKKVIVV]	−1.8	–
VARWKIIIAKLW-NH2 [BFmax-5, VARWKIIIAKLW]	2	–
VIKVLIKRWLKL-NH2 [BFmax-9, VIKVLIKRWLKL]	7.4	–
VKGAIKRGIWVK-NH2 [Imax- 5]	3	–
VQWIQIVVWRKR-NH2 [BFmax-6, VQWIQIVVWRKR]	−4.4	–
VRLIVAVRIWRHar (VRLIVAVRIWR[hArg]-NH2; N-terminus assumed; SMILES CC[C@H](C)[C@H](NC(=O)[C@H](CCCNC(=N)N)NC(=O)[C@@H](NC(=O)[C@H](C)NC(=O)[C@@H](NC(=O)[C@@H](NC(=O)[C@H](CC(C)C)NC(=O)[C@H](CCCNC(=N)N)NC(=O)[C@@H](N)C(C)C)[C@@H](C)CC)C(C)C)C(C)C)C(=O)N[C@@H](Cc1c[nH]c2ccccc12)C(=O)N[C@@H](CCCNC(=N)N)C(=O)N[C@@H](CCCCNC(=N)N)C(N)=O) [Peptide 1018-r36]	–	% Residual MRSA biofilm growth compared to untreated control (S. aureus (MRSA SAP0017)): 27%
VRLIVAVRIWROrn (VRLIVAVRIWR[Orn]-NH2; N-terminus assumed; SMILES CC[C@H](C)[C@H](NC(=O)[C@H](CCCNC(=N)N)NC(=O)[C@@H](NC(=O)[C@H](C)NC(=O)[C@@H](NC(=O)[C@@H](NC(=O)[C@H](CC(C)C)NC(=O)[C@H](CCCNC(=N)N)NC(=O)[C@@H](N)C(C)C)[C@@H](C)CC)C(C)C)C(C)C)C(=O)N[C@@H](Cc1c[nH]c2ccccc12)C(=O)N[C@@H](CCCNC(=N)N)C(=O)N[C@@H](CCCN)C(N)=O) [Peptide 1018-k36]	–	% Residual MRSA biofilm growth compared to untreated control (S. aureus (MRSA SAP0017)): 20%
VRLIVAVRIWRR-NH2 [Peptide 1018, VRLIVAVRIWRR, reference compound]	21.8	percentage of biofilm inhibited (S. aureus (MRSA SAP0017); SPOT-synthesized peptide, ~2.5 μM, MRSA SAP0017): 31%; MIC (μM) MHB ([1]; broth microdilution in Mueller Hinton Broth (MHB)): 4 µM; MIC (μM) TSB with 1% Glucose ([1]; broth microdilution in Tryptic Soy Broth (TSB) supplemented with 1% glucose): >64 µM
VRLIVHarVRIWRR (VRLIV[hArg]VRIWRR-NH2; N-terminus assumed; SMILES CC[C@H](C)[C@H](NC(=O)[C@H](CCCNC(=N)N)NC(=O)[C@@H](NC(=O)[C@H](CCCCNC(=N)N)NC(=O)[C@@H](NC(=O)[C@@H](NC(=O)[C@H](CC(C)C)NC(=O)[C@H](CCCNC(=N)N)NC(=O)[C@@H](N)C(C)C)[C@@H](C)CC)C(C)C)C(C)C)C(=O)N[C@@H](Cc1c[nH]c2ccccc12)C(=O)N[C@@H](CCCNC(=N)N)C(=O)N[C@@H](CCCNC(=N)N)C(N)=O) [Peptide 1018-r30]	–	% Residual MRSA biofilm growth compared to untreated control (S. aureus (MRSA SAP0017)): 57%
VRLIVOrnVRIWRR (VRLIV[Orn]VRIWRR-NH2; N-terminus assumed; SMILES CC[C@H](C)[C@H](NC(=O)[C@H](CCCNC(=N)N)NC(=O)[C@@H](NC(=O)[C@H](CCCN)NC(=O)[C@@H](NC(=O)[C@@H](NC(=O)[C@H](CC(C)C)NC(=O)[C@H](CCCNC(=N)N)NC(=O)[C@@H](N)C(C)C)[C@@H](C)CC)C(C)C)C(C)C)C(=O)N[C@@H](Cc1c[nH]c2ccccc12)C(=O)N[C@@H](CCCNC(=N)N)C(=O)N[C@@H](CCCNC(=N)N)C(N)=O) [Peptide 1018-k30]	–	% Residual MRSA biofilm growth compared to untreated control (S. aureus (MRSA SAP0017)): 27%
VVGLRVRWVRLW-NH2 [Imin-3, VVGLRVRWVRLW]	−4.3	–
WAVRALKVKWAL-NH2 [Imax-20, WAVRALKVKWAL]	−2.7	–
WWIKIVVIRVRR-NH2 [IBFmax-13, WWIKIVVIRVRR]	−2	–
